For orientation: IC50 means the point on the concentration scale where inhibition reaches its midpoint.

The target in this assay is Poly [ADP-ribose] polymerase 1 (Homo sapiens, UniProt P09874). The assay is described as follows: Enzyme Assay: Inhibition of PARP-1 enzymatic activities was measured using an HT Universal Colorimetric PARP Assay Kit (Trevigen, catalogue #4677-096-K) following the standard procedures. Serial dilutions of PARP compounds were added to appropriate wells. The compound was incubated with PARP enzyme at RT for 10 min, and the reaction was initiated by addition of the PARP substrate cocktail, Each concentration of compound was tested in triplicate wells. After 15 min reaction, the reaction was stopped, and the Strep-HRP was added into each well and incubated for 1 h at RT. After addition of TACS-Sapphire colorimetric substrate and incubated in dark for 15 min, the OD450 was read out with an EnVision instrument. IC50 values (the concentration at which 50% of the enzyme activity is inhibited) were calculated, which are determined over a range of different concentrations, normally from 10 uM to 0.1 nM.
Chain of Poly [ADP-ribose] polymerase 1 (P09874 whole entry): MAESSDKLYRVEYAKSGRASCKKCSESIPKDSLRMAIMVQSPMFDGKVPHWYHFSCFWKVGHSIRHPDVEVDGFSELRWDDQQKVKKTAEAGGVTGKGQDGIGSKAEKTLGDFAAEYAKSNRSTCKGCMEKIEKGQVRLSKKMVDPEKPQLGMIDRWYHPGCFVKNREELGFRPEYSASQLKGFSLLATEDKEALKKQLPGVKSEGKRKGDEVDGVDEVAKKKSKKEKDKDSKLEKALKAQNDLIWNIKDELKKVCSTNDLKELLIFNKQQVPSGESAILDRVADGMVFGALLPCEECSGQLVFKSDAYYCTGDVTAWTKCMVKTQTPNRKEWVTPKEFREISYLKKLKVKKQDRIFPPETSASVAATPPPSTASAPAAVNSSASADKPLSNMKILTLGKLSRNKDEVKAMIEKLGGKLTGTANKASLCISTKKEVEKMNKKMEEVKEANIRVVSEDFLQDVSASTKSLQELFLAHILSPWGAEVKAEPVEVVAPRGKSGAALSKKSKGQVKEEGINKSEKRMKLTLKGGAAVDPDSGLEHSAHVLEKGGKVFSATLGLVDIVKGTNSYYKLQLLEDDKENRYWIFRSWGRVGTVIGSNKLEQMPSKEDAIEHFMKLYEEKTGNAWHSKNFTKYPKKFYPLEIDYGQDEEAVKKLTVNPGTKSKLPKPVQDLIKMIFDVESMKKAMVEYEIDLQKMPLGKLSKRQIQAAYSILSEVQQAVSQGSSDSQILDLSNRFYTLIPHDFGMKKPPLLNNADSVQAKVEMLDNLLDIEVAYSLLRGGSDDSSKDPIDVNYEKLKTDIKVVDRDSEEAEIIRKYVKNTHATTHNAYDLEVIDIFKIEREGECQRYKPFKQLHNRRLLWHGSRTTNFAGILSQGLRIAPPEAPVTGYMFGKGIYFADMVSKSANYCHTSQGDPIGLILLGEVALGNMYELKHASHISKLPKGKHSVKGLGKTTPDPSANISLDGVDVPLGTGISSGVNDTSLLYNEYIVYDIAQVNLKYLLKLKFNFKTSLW
`CC(C)(C)C(=O)N1CCP(=O)(c2cc(Cc3n[nH]c(=O)c4ccccc34)ccc2F)CC1`: the IC50 was less than 100 nM.
On to `CC(C)P1(=O)CCN(C(=O)c2cc(Cc3n[nH]c(=O)c4ccccc34)ccc2F)CC1`, for which the IC50 was less than 100 nM.
The value for `CCP1(=O)CCN(C(=O)c2cc(Cc3n[nH]c(=O)c4ccccc34)ccc2F)CC1` was less than 100 nM; that for `O=c1[nH]nc(Cc2ccc(F)c(P3(=O)CCN(c4ncccn4)CC3)c2)c2ccccc12` was less than 100 nM.
In the case of `CCOP1(=O)CCN(C(=O)c2cc(Cc3n[nH]c(=O)c4ccccc34)ccc2F)CC1`, the IC50 is less than 100 nM.
Take `CC(C)CN1CCP(=O)(c2cc(Cc3n[nH]c(=O)c4ccccc34)ccc2F)CC1`: the IC50 was less than 100 nM.
Consider `N#C/N=C(\N1CCC1)N1CCP(=O)(c2cc(Cc3n[nH]c(=O)c4ccccc34)ccc2F)CC1`, for which the IC50 was less than 100 nM.

(Values after ChEMBL document CHEMBL5728984, “Tricyclic inhibitors of poly(ADP-ribose)polymerase” (2022).)
